According to US6384066B1, “Sulphonyltriazol derivatives and their use for combating micro-organisms” (priority 1998, dated 2002):

What was measured:
Phytophthora infestans = type: in vivo; conditions: tomato plants, protective spray, application rate 50 g/ha, evaluation 3 days after inoculation; 100% = no infection

Question: Which melting point does the source give for `Cc1noc(C)c1S(=O)(=O)n1nc(Cl)nc1-c1ccccc1` [Example 1] here?
Answer: 70 to 74 °C

Question: Which Efficacy in % (Phytophthora infestans) does the source give for `Cc1noc(C)c1S(=O)(=O)n1nc(Cl)nc1-c1ccccc1` [drawing 94] here?
Answer: 97%
